Patent EP1813636A1, “Polyamine analogs that activate antizyme frameshifting” (MediQuest Therapeutics, Inc., priority 2004, dated 2007)

Tests used:
ODC = biological target: T1, ODC (Homo sapiens, UniProt P11926); details: inhibition of ODC; cited from earlier work
T1 sequence (P11926 1-461): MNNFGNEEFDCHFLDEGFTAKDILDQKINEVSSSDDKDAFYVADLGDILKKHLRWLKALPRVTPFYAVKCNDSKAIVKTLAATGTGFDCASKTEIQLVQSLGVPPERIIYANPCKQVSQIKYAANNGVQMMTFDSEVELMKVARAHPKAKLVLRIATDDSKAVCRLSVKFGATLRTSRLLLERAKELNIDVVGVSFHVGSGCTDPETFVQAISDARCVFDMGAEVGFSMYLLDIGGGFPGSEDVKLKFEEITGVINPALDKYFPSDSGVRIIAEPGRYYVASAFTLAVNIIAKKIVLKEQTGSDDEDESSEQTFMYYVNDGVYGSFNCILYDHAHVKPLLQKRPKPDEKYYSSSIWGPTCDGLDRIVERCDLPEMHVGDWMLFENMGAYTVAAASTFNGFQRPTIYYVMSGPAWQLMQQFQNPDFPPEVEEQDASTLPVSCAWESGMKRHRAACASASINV

HEK-293 cells [1] = assay: rescue from DFMO-induced growth inhibition (6 days, MTS/PMS dye assay); format: cell-based; details: 25 µM compound, 2.5 mM DFMO
Method: The rescue coefficient represents the ratio of cell growth, as measured by O.D., of the test compound with 2.5 mM DFMO versus 2.5 mM DFMO alone.
HEK-293 cells are plated in 96-well assay plates at 1,000 cells per well in 100 µL of medium (DMEM supplemented with 10% fetal bovine serum (Gibco), 1% penicillin, streptomycin and L-glutamine). The cells are incubated overnight at 37°C in an atmosphere of 5% CO2. Compounds are added the next day to a final concentration of 25 µM along with 1 mM aminoguanidine (inhibits serum amine oxidase) and 2.5 mM DFMO in a final volume of 200 µL medium. The positive control contained 25 µM spermidine. The cells are allowed to incubate for 6 days before cell growth is measured by MTS/PMS dye assay (Cell Titer 96 Aqueous Non-Radioactive Cell Proliferation Assay, Promega). […] Therefore, DFMO alone has a value of one. […] If the value is less than one, then the compound is growth inhibitory. If the value is 0, the compound is cytotoxic.

antizyme = details: 10 µM; cited from earlier work
HEK-293 cells [2] = assay: intracellular polyamine levels (HPLC) and cell growth after 6-day incubation; format: cell-based
Method: Figure 6 is a graph showing the effect of a 6-day incubation of compound A on HEK-293 cellular polyamine levels and cell growth. All flasks received 1 mM aminoguanidine. Cells were washed, counted, lysed in perchloric acid, dansylated and polyamine levels determined by HPLC. Each value represents the average of triplicate values with the error bars representing standard deviation. Figure 7 illustrates the effect of extracellular compound A on the intracellular concentration of compound A in HEK-293 cells as determined by HPLC. Cells were prepared as in Figure 6. Peak area was normalized by dividing the peak area of the compound divided by the peak area of the internal standard, diaminoheptane. Values represent at least triplicate measurements with the error bars representing standard deviation.
Compound A is further evaluated to determine if it depletes intracellular polyamine levels in HEK-293 cells in a dose-dependent fashion (Fig. 6). […] After overnight incubation at 37°C in an atmosphere of 5% CO2, compound A is added along with 1 mM aminoguanidine. The flasks are then incubated for 6 days at 37°C in an atmosphere of 5% CO2. The cells are harvested by washing twice with ice-cold 1X PBS, trypsinized, counted, and lysed in 0.4 N perchloric acid. Diaminoheptane is used in all dansylation reactions as an internal standard. Peak area is normalized by dividing the peak area of the compound divided by the peak area of the internal standard. The HPLC method for the fluorometric detection of polyamines from the cell extracts is based on the procedure by Kabra (Kabra, P. M. et. al. J. Chromatogr. 380:19-32 (1986)).

HEK-293 cells [3] = assay: cells
Method: Cell number was determined by MTS/PMS assay from triplicate wells. Cells are plated in 96-well plates such that they would be in log growth for the duration of the assay. The day after plating, the polyamine analogs are added to the cells, and growth, if any, permitted to continue for six days in the presence of 1 mM AG and 1 µM SPD when appropriate. At the end of six days, cell growth is measured by MTS/PMS dye assay (Cell Titer 96 Aqueous Non-Radioactive Cell Proliferation Assay; Promega, Madison, WI).

antizyme frameshifting = assay: dual luciferase reporter assay for antizyme frameshifting in HEK-293 cells; format: cell-based; details: for frameshift-rescue factor (FRF): %RF multiplied by the inverse of the rescue coefficient
Method: Frameshifting can be detected using a dual luciferase reporter system that measures the efficiency of antizyme translational frameshifting (Grentzmann, G. et. al., RNA 4:479-486 (1998); Howard, M. et. al., Genes to Cells 6:931-941 (2001)). Frameshifting efficiency is determined by comparing the ratio of firefly luciferase to renilla luciferase activity in cells transfected in parallel using a control vector containing a constitutive […] (AZ-IF) that measures the in-frame translation efficiency and a vector containing the inducible 0 to +1 frameshift (AZ1) construct. In these constructs, the renilla luciferase gene is upstream of the firefly luciferase gene which are separated by a short cloning sequence containing the portions of antizyme 1 and 2 known to contain the mRNA signals for polyamine stimulated frameshifting. Using a 96-well format, this assay system gives a quantitative measure of the efficiency of the polyamines, polyamine analogs and other compounds to induce frameshifting in a cell-based bioassay. Cells must be pretreated with α-difluoromethylomithine (DFMO), an irreversible inhibitor of ODC, prior to screening to decrease the basal antizyme frameshifting levels and increase the sensitivity to polyamine or compound-mediated stimulation of antizyme frameshifting.
Figure 1 is a tabular representation of a large number of polyamines A-S (25 µM) that were tested for their ability to induce antizyme frameshifting using the dual luciferase reporter assay. The percent relative frameshifting value (% RF) gives a comparison of the ability of a compound to induce frameshifting compared to 25 µM spermidine. The % RF was calculated as follows. The background percent frameshifting activity determined from the 2.5 mM DFMO negative control was subtracted from the percent frameshifting activity for all compounds including the spermidine control. The background corrected frameshifting activity of each compound was then divided by the background corrected frameshifting activity induced by 25 µM spermidine and multiplied by 100. The compounds were also evaluated for their ability to rescue cells from DFMO-induced growth inhibition by determining their rescue coefficient. The rescue coefficient represents the ratio of the cell growth, as measured by O.D., in the presence of the test compound with 2.5 mM DFMO to the growth in the presence of 2.5 mM DFMO alone. The frameshift-rescue factor (FRF) is a useful factor to compare the effectiveness of the various antizyme frameshifters by taking into account their potency for inducing frameshifting and ability to rescue cells from DFMO-induced growth inhibition. The FRF was calculated by multipling the %RF value by the inverse of the rescue coefficient.
Values represent percent frameshifting following transient transfection of an AZ1-IF control and the inducible 0 to +1 AZ1 plasmid construct into HEK-293 cells grown in the presence of 2.5 mM DFMO. The compounds were added to the cells after transfection and incubated overnight before assaying the next day. Each value represents triplicate measurements.
A series of compounds are screened for their ability to induce frameshifting using the dual luciferase reporter assay. HEK-293 cells are plated in white sided, clear-bottomed 96-well assay plates at 15,000 cells per well in 100 µL of medium (DMEM supplemented with 10% fetal bovine serum (Gibco), 1% penicillin, streptomycin and L-glutamine) containing 2.5 mM DFMO. […]

**Q.** Which Ki (ODC) does the source give for `NC/C=C/CN` [1,4-diamino-trans-2-butene] here?
**A.** 2 µM

**Q.** Which Ki (ODC) does the source give for `Nc1ccc(N)cc1` [1,4-phenylenediamine] here?
**A.** 46 µM

**Q.** With `N=C(N)NCCCCN` [Agmatine, reference compound] as the compound, how does the “ability to rescue cells from DFMO-induced growth inhibition” value (HEK-293 cells [1]) read?
**A.** somewhat better than either A or B

**Q.** Which “antizyme induction compared with spermine” value (antizyme) does the source give for `CCNCCCCNCCCCNCCCCNCCCCNCC` [BE-4-4-4-4, 1,19-bis(ethylamino)-5,10,15-triazanonadecane] here?
**A.** induce antizyme as well as spermine

**Q.** For `NCCCNCc1ccc(CN)cc1` [Compound A], which “cell growth decreasing by” value (HEK-293 cells [2]; 10 µM compound A, 6 days) is on record?
**A.** 32%

**Q.** What about the “spermidine levels down by” value (HEK-293 cells [2]; 10 µM compound A, 6 days) of the same compound?
**A.** about 90%

**Q.** And the “cell growth decreasing by” value (HEK-293 cells [2]; 30 µM compound A, 6 days)?
**A.** 38.5%

**Q.** What about the “spermine levels reduced by” value (HEK-293 cells [2]; 100 µM compound A, 6 days) of the same compound?
**A.** 50%

**Q.** And the “spermine levels, percent of normal” value (HEK-293 cells [2]; compound A levels above 30 µM)?
**A.** approximately 50%

**Q.** And the “concentration range of compound A in which 1 µM spermidine rescues cells from growth inhibition” value (HEK-293 cells [3]; HEK-293 cells, addition of 1 µM spermidine)?
**A.** 3 to 100 µM

**Q.** And the IC50 (HEK-293 cells [3]; Homo sapiens, HEK293, 144 h, read-out: IC50 for growth inhibition, HEK-293 cells, 6 days, 1 mM aminoguanidine)?
**A.** ~60 µM

**Q.** What about the “frameshift-rescue factor (FRF)” value (antizyme frameshifting; 25 µM) of the same compound?
**A.** 120

**Q.** What about the EC50 (antizyme frameshifting; Homo sapiens, HEK293, HEK-293 cells, 2.5 mM DFMO, concentration giving 50% of the maximum percent frameshifting (plateau), read-out: EC50 for induction of frameshifting) of the same compound?
**A.** ~120 µM

**Q.** For `NCCCCNCc1ccc(CNCCCN)cc1` [Compound B], which “ability to rescue cells from DFMO-induced growth inhibition” value (HEK-293 cells [1]) is on record?
**A.** neither compound A nor B significantly rescue cells

**Q.** What about the “potency in inducing antizyme frameshifting compared with agmatine” value (antizyme frameshifting; 25 µM, Fig 2) of the same compound?
**A.** more potent than agmatine

**Q.** And the “frameshift-rescue factor (FRF)” value (antizyme frameshifting; 25 µM)?
**A.** 83

**Q.** With `NCCCN(CCCN)Cc1ccc(CN(CCCN)CCCN)cc1` [Compound S, reference compound] as the compound, how does the “%RF (percent relative frameshifting)” value (antizyme frameshifting; 25 µM compound, relative to 25 µM spermidine) read?
**A.** 100%

**Q.** For `CCNCCCCNCCCCNCCCCNCC` [bisethylhomospermine], which “antizyme induction compared with spermine” value (antizyme) is on record?
**A.** induce antizyme as well as spermine

**Q.** With `CCNCCCNCCCNCCCNCC` [bisethylnorspermine] as the compound, how does the “antizyme induction compared with spermine” value (antizyme) read?
**A.** induce antizyme as well as spermine
